Reference: ChEMBL document CHEMBL1135808, “A new type of mixed anhydride and its applications to the synthesis of 7-substituted 8-chloro-5,5-dioxoimidazo[1,2-b][1,4,2]benzodithiazines with in vitro antitumor activity” (2002)
The source made the active and inactive calls. The rule behind the calls is not given here.

Tests used:
Tumor Cell line [1] = assay: In vitro inhibition of 50% cell growth was reported as log of molar concentration for 54 cell lines; Inactive; format: functional, cell-based; details: Homo sapiens
Tumor Cell line [2] = assay: In vitro total growth inhibition for 50 cell lines was reported as log of molar concentration; Inactive; format: functional, cell-based; details: Homo sapiens
Tumor Cell line [3] = assay: Log of molar concentration leading to 50% cell death was reported; Inactive; format: functional, cell-based; details: Homo sapiens
Tumor Cell line [4] = assay: In vitro inhibition of 50% cell growth was reported as log of molar concentration for 58 cell lines.; format: functional; details: Homo sapiens
Tumor Cell line [5] = assay: In vitro total growth inhibition for 50 cell lines was reported as log of molar concentration; format: functional, Homo sapiens
Tumor Cell line [6] = assay: Log of molar concentration leading to 50% cell death was reported; format: functional; details: Homo sapiens, read-out: Log LC50 (the source's name) (converted)
Tumor Cell line [7] = assay: In vitro inhibition of 50% cell growth was reported as log of molar concentration for 46 cell lines.; format: functional; details: Homo sapiens
Tumor Cell line [8] = assay: In vitro inhibition of 50% cell growth was reported as log of molar concentration for 54 cell lines.; format: functional; details: Homo sapiens
Tumor Cell line [9] = assay: In vitro inhibition of 50% cell growth was reported as log of molar concentration for 56 cell lines.; format: functional; details: Homo sapiens
Tumor Cell line [10] = assay: Log of molar concentration leading to 50% cell death was reported for 50 cell lines; format: functional; details: Homo sapiens, read-out: Log LC50 (the source's name) (converted)
Tumor Cell line [11] = assay: In vitro inhibition of 50% cell growth was reported as log of molar concentration for 50 cell lines.; format: functional; details: Homo sapiens
Tumor Cell line [12] = assay: In vitro inhibition of 50% cell growth was reported as log of molar concentration for 57 cell lines.; format: functional; details: Homo sapiens

SMILES | IA (Tumor Cell line [1]) | IA (Tumor Cell line [2]) | IA (Tumor Cell line [3]) | Log GTI (Tumor Cell line [5]) | CC50 (Tumor Cell line [6]) | further results
O=C(Nc1ccccc1C(=O)Nc1ccccc1)c1cc2c(cc1Cl)Sc1nccn1S2(=O)=O | inactive | inactive | inactive |  |  | 
O=C(Nc1ccc2scnc2c1)c1cc2c(cc1Cl)Sc1nccn1S2(=O)=O | inactive | inactive | inactive |  |  | 
O=C(Oc1c(-c2ccccc2)oc2ccccc2c1=O)c1cc2c(cc1Cl)Sc1nccn1S2(=O)=O | inactive | inactive | inactive |  |  | 
O=C(Nc1ccccn1)c1cc2c(cc1Cl)Sc1nccn1S2(=O)=O |  |  |  | -4.02 | 58.9 µM | GI50 (Tumor Cell line [4]): 70.8 µM
Cc1ccnc(NC(=O)c2cc3c(cc2Cl)Sc2nccn2S3(=O)=O)c1 | inactive | inactive | inactive |  |  | 
O=c1c2ccccc2nc(-c2cc3c(cc2Cl)Sc2nccn2S3(=O)=O)n1-c1ccccc1 |  |  |  | -4.07 | 85.1 µM | GI50 (Tumor Cell line [7]): 89.1 µM
O=C1c2ccccc2/N=C(/c2cc3c(cc2Cl)Sc2nccn2S3(=O)=O)OS(=O)(=O)N1c1ccccc1 |  |  |  | -4.04 | 91.2 µM | GI50 (Tumor Cell line [8]): 81.3 µM
O=C(Nc1cccc2cnccc12)c1cc2c(cc1Cl)Sc1nccn1S2(=O)=O |  |  |  | -4.04 |  | GI50 (Tumor Cell line [9]): 39.8 µM; CC50 (Tumor Cell line [10]): 100 µM
Cc1cccnc1NC(=O)c1cc2c(cc1Cl)Sc1nccn1S2(=O)=O | inactive | inactive | inactive |  |  | 
O=C(Nc1ccc2cc3ccccc3cc2c1)c1cc2c(cc1Cl)Sc1nccn1S2(=O)=O |  |  |  | -4.52 |  | GI50 (Tumor Cell line [11]): 87.1 µM
Cc1ccc2cc(NC(=O)c3cc4c(cc3Cl)Sc3nccn3S4(=O)=O)ccc2n1 |  |  |  | -4.06 | 100 µM | GI50 (Tumor Cell line [12]): 33.9 µM
O=C(c1cc2c(cc1Cl)Sc1nccn1S2(=O)=O)N1c2ccccc2C=Cc2ccccc21 | inactive | inactive | inactive |  |  | 
